This is an account of results in US9771370B2, “Compounds for the inhibition of indoleamine-2,3-dioxygenase” (Merck Patent GmbH, priority 2014, dated 2017).

pIC50: −log10 of the molar value. Some results are limits rather than exact numbers.

The target of the assay is Recombinant human IDO (Homo sapiens, UniProt P14902). As to the kind of experiment: Bridge-IT tryptophan fluorescence assay of human IDO-1 inhibition. The assay is classed as biochemical. To be noted: recombinant human IDO 7.5 nM, L-tryptophan. Here is the method: Measurement of human IDO-1 inhibition is performed in 384 well format using the Bridge-IT® tryptophan Fluorescence Assay (Mediomics, LLC, St. Louis, Mo., U.S.A.).
Chain of Recombinant human IDO (P14902 whole entry): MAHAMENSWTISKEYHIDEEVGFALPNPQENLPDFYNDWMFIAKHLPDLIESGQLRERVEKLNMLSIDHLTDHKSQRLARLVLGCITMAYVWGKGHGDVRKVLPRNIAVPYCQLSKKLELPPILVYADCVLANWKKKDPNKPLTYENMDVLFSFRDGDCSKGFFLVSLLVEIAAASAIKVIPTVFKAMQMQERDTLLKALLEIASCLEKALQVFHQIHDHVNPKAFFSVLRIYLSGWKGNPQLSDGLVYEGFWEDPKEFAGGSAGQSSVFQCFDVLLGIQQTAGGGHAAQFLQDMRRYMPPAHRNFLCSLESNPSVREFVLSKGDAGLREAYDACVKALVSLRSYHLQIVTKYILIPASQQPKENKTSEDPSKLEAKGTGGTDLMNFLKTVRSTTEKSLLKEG
The reaction is initiated by the addition of L-Tryptophan (Sigma) at a final concentration of 100 μM in assay buffer. After 90 minutes of incubation at 37° C., the reaction is stopped by transferring 1 μl of the reaction mixture to 9 μl of Bridge-IT assay solution A. After 30 min of incubation at 30° C., the fluorescence intensity was measured at λex=485 nm and λem=665 nm using Perkin Elmer Envision® Multilabel Reader.
Measurement of human IDO-1 inhibition was performed in 384-well format using the BRIDGE-IT® tryptophan Fluorescence Assay (Mediomics, LLC, St. Louis, Mo., U.S.A.). […] After 30 minutes of pre-incubation at 25° C., the reaction was initiated by the addition of L-Tryptophan (Sigma) at a final concentration of 50 μM in assay buffer. After 60 minutes of incubation at 25° C., the reaction is stopped by transferring 1 μl of the reaction mixture to 9 μl of Bridge-IT assay solution A. After 30 min of incubation at 30° C., the fluorescence intensity was measured at λex=485 nm and λem=665 nm using Perkin Elmer ENVISION® Multilabel Reader.
As a reminder, the pIC50 is the IC50 on a negative log10 scale, so that one unit is a factor of ten. Consider `NC(=O)C1CCC(C(O)CC2c3ncccc3-c3cncn32)CC1` (stereo not drawn) [Compound 63a, 4-[1-hydroxy-2-[4,6,9-triazatricyclo[6.4.0.0^[2,6]]dodeca-1(8),2,4,9,11-pentaen-7-yl]ethyl]cyclohexane-1-carboxamide], for which the pIC50 was less than 6.00. For the molecule `CC1(C)CCC(F)(CCC2c3ncncc3-c3cncn32)CC1` (single isomer, unassigned) [Compound 66b, 7-[2-(1-fluoro-4,4-dimethylcyclohexyl)ethyl]-4,6,9,11-tetraazatricyclo[6.4.0.0^[2,6]]dodeca-1(8),2,4,9,11-pentaene], the pIC50 is less than 6.00. Then `COc1ccc(F)c2c1-c1cncn1C2CCC1(F)CCCCC1` (single isomer, unassigned) [Compound 45a, 6-fluoro-5-(2-(1-fluorocyclohexyl)ethyl)-9-methoxy-5H-imidazo[5,1-a]isoindole], with less than 6.00; and `OC(CC1c2nc(C3CC3)ccc2-c2cncn21)C1CCC(F)(F)CC1` (stereo not drawn) [Compound 57a, 2-[10-cyclopropyl-4,6,9-triazatricyclo[6.4.0.0^[2,6]]dodeca-1(8),2,4,9,11-pentaen-7-yl]-1-(4,4-difluorocyclohexyl)ethan-1-ol], with less than 6.00. On to `OC(CC1c2nc(OC3CC3)ccc2-c2cncn21)C1CCCCC1` (single isomer, unassigned) [Compound 68c, 1-cyclohexyl-2-[10-cyclopropoxy-4,6,9-triazatricyclo[6.4.0.0^[2,6]]dodeca-1(8),2,4,9,11-pentaen-7-yl]ethan-1-ol], for which the pIC50 is less than 6.00. The result for `FC(CC1c2ncccc2-c2cncn21)C1CCCCC1` (single isomer, unassigned) [Compound 97b, 7-[2-cyclohexyl-2-fluoroethyl]-4,6,9-triazatricyclo[6.4.0.0^[2,6]]dodeca-1(8),2,4,9,11-pentaene] reads 6.00 to 7.00. Consider `OC1CCC(F)(CCC2c3nccc(F)c3-c3cncn32)CC1` (mixture of isomers) [Compound 103a, 4-fluoro-4-(2-[12-fluoro-4,6,9-triazatricyclo[6.4.0.0^[2,6]]dodeca-1(8),2,4,9,11-pentaen-7-yl]ethyl)cyclohexan-1-ol], for which the pIC50 was less than 6.00. Take `FC1(CCC2c3c(Cl)cccc3-c3cncn32)CCOCC1` (single isomer, unassigned) [Compound 96a, 6-chloro-5-[2-(4-fluorooxan-4-yl)ethyl]-5H-imidazo[4,3-a]isoindole]: the pIC50 was less than 6.00. On to `NC(=O)CC1CCC(F)(CCC2c3ccccc3-c3cncn32)CC1` (single isomer, unassigned) [Compound 112c, 2-[4-fluoro-4-[2-[5H-imidazo[4,3-a]isoindol-5-yl]ethyl]cyclohexyl]acetamide], for which the pIC50 was less than 6.00. The result for `COc1ccc2c(n1)C(CC(N)C1CCC(C)(C)CC1)n1cncc1-2` (single isomer, unassigned) [Compound 119d, 1-(4,4-dimethylcyclohexyl)-2-[10-methoxy-4,6,9-triazatricyclo[6.4.0.0^[2,6]]dodeca-1(8),2,4,9,11-pentaen-7-yl]ethan-1-amine] reads less than 6.00. As for `NC(=O)C1CCC(F)(CCC2c3c(F)cccc3-c3cncn32)CC1` (single isomer, unassigned) [Compound 81c, 4-fluoro-4-[2-[6-fluoro-5H-imidazo[4,3-a]isoindol-5-yl]ethyl]cyclohexane-1-carboxamide], the pIC50 is greater than 7.00.

On to `CN(C)C(=O)C1CCC(F)(CCC2c3c(Cl)cccc3-c3cncn32)CC1` (single isomer, unassigned) [Compound 114c, 4-[2-[6-chloro-5H-imidazo[4,3-a]isoindol-5-yl]ethyl]-4-fluoro-N,N-dimethylcyclohexane-1-carboxamide], for which the pIC50 was less than 6.00.

Regarding `OC(CC1c2cc(F)ncc2-c2cncn21)C1CCCCC1` (single isomer, unassigned) [Compound 24d, 1-cyclohexyl-2-[10-fluoro-4,6,11-triazatricyclo[6.4.0.0^[2,6]]dodeca-1(8),2,4,9,11-pentaen-7-yl]ethan-1-ol], the pIC50 is greater than 7.00. Consider `Fc1ccc2c(n1)C(CCC1(F)CCC(F)(F)CC1)n1cncc1-2` (stereo not drawn) [Compound 46, 10-fluoro-7-[2-(1,4,4-trifluorocyclohexyl)ethyl]-4,6,9-triazatricyclo[6.4.0.0^[2,6]]dodeca-1(8),2,4,9,11-pentaene], for which the pIC50 is less than 6.00. `CC(C)(O)C1CCC(F)(CCC2c3c(F)cccc3-c3cncn32)CC1` (mixture of isomers) [Compound 86b, 2-[4-fluoro-4-(2-[6-fluoro-5H-imidazo[4,3-a]isoindol-5-yl]ethyl)cyclohexyl]propan-2-ol]: the pIC50 was greater than 7.00. Take `COc1ccc2c(n1)C(CC(N)C1CCC(C)(C)CC1)n1cncc1-2` (single isomer, unassigned) [Compound 119c, 1-(4,4-dimethylcyclohexyl)-2-[10-methoxy-4,6,9-triazatricyclo[6.4.0.0^[2,6]]dodeca-1(8),2,4,9,11-pentaen-7-yl]ethan-1-amine]: the pIC50 is 6.00 to 7.00.

As to `FC1(CCC2c3ncccc3-c3cncn32)CCC2(CC1)CC2` (single isomer, unassigned) [Compound 30a, 7-(2-{6-fluorospiro[2.5]octan-6-yl}ethyl)-4,6,9-triazatricyclo[6.4.0.0^[2,6]]dodeca-1(8),2,4,9,11-pentaene], the pIC50 is 6.00 to 7.00.

Take `OC1CCC(F)(CCC2c3nccc(F)c3-c3cncn32)CC1` (stereo not drawn) [Compound 103b, 4-fluoro-4-(2-[12-fluoro-4,6,9-triazatricyclo[6.4.0.0^[2,6]]dodeca-1(8),2,4,9,11-pentaen-7-yl]ethyl)cyclohexan-1-ol]: the pIC50 was less than 6.00. On to `CC1(C)CCC(C(O)CC2c3nc(F)ccc3-c3cncn32)CC1` (single isomer, unassigned) [Compound 25c, 1-(4,4-dimethylcyclohexyl)-2-[10-fluoro-4,6,9-triazatricyclo[6.4.0.0^[2,6]]dodeca-1(8),2,4,9,11-pentaen-7-yl]ethan-1-ol], for which the pIC50 is less than 6.00. Turning to `COc1ccc2c(n1)C(CCC1(F)CCCCC1)n1cncc1-2` (single isomer, unassigned) [Compound 32b, 7-[2-(1-fluorocyclohexyl)ethyl]-10-methoxy-4,6,9-triazatricyclo[6.4.0.0^[2,6]]dodeca-1(8),2,4,9,11-pentaene], the pIC50 was 6.00 to 7.00. On to `OC(CC1c2c(F)cncc2-c2cncn21)C1CCCCC1` (stereo not drawn) [Compound 3a, 1-cyclohexyl-2-[9-fluoro-4,6,11-triazatricyclo[6.4.0.0^[2,6]]dodeca-1(8),2,4,9,11-pentaen-7-yl]ethan-1-ol], for which the pIC50 is less than 6.00.

With `NS(=O)(=O)C1CCC(F)(CCC2c3ccccc3-c3cncn32)CC1` (single isomer, unassigned) [Compound 121a, 4-fluoro-4-[2-[5H-imidazo[4,3-a]isoindol-5-yl]ethyl]cyclohexane-1-sulfonamide], the pIC50 was greater than 7.00. Consider `COc1ccc2c(n1)C(CC(N)C1CCC(C)(C)CC1)n1cncc1-2` (single isomer, unassigned) [Compound 119a, 1-(4,4-dimethylcyclohexyl)-2-[10-methoxy-4,6,9-triazatricyclo[6.4.0.0^[2,6]]dodeca-1(8),2,4,9,11-pentaen-7-yl]ethan-1-amine], for which the pIC50 was less than 6.00. Consider `OC1CCC(C(F)(F)CC2c3c(F)ccc(F)c3-c3cncn32)CC1` (mixture of isomers) [Compound 78a, 4-(2-[6,9-difluoro-5H-imidazo[4,3-a]isoindol-5-yl]-1,1-difluoroethyl)cyclohexan-1-ol], for which the pIC50 is 6.00 to 7.00. For `O=C(O)C1CCC(F)(CCC2c3c(F)cccc3-c3cncn32)CC1` (single isomer, unassigned) [Compound 80a, 4-fluoro-4-(2-[6-fluoro-5H-imidazo[4,3-a]isoindol-5-yl]ethyl)cyclohexane-1-carboxylic acid], the pIC50 was greater than 7.00. As for `Fc1cccc2c1-c1cncn1C2CCC1(F)CCCCC1` (single isomer, unassigned) [Compound 36b, 9-fluoro-5-(2-(1-fluorocyclohexyl)ethyl)-5H-imidazo[5,1-a]isoindole], the pIC50 is less than 6.00.

Take `OC1CCC(F)(CCC2c3ncccc3-c3cncn32)CC1` (single isomer, unassigned) [Compound 8a, 4-fluoro-4-(2-{4,6,9-triazatricyclo[6.4.0.0^[2,6]]dodeca-1(8),2,4,9,11-pentaen-7-yl}ethyl)cyclohexan-1-ol]: the pIC50 was 6.00 to 7.00. With `OCC1CCC(C(O)CC2c3ncccc3-c3cncn32)CC1` (stereo not drawn) [Compound 73a, 1-[4-(hydroxymethyl)cyclohexyl]-2-[4,6,9-triazatricyclo[6.4.0.0^[2,6]]dodeca-1(8),2,4,9,11-pentaen-7-yl]ethan-1-ol], the pIC50 is less than 6.00. As to `COc1ccc2c(n1)C(CCC1(F)CCC(F)(F)CC1)n1cncc1-2` (single isomer, unassigned) [Compound 34a, 10-methoxy-7-[2-(1,4,4-trifluorocyclohexyl)ethyl]-4,6,9-triazatricyclo[6.4.0.0^[2,6]]dodeca-1(8),2,4,9,11-pentaene], the pIC50 was greater than 7.00. Regarding `OC(CC1c2nc(OC3CC3)ccc2-c2cncn21)C1CCC(F)(F)CC1` (single isomer, unassigned) [Compound 69b, 2-[10-cyclopropoxy-4,6,9-triazatricyclo[6.4.0.0^[2,6]]dodeca-1(8),2,4,9,11-pentaen-7-yl]-1-(4,4-difluorocyclohexyl)ethan-1-ol], the pIC50 is less than 6.00.
